The test system of one assay is MIA PaCa-2 cells. Briefly: Extracellular lactate production inhibition after 4 h, MIA PaCa-2. The settings on record: Homo sapiens, MIA PaCa-2, read-out: IC50 (MiaPACa).
A further assay deals with SNU398 cells. Put plainly: Extracellular lactate production inhibition after 4 h, SNU398. Conditions: Homo sapiens, SNU-398, read-out: IC50 (SNU-398).
The next assay relates to MDA-MB-231 cells. Briefly: Extracellular lactate production inhibition after 4 h, MDA-MB-231. The settings on record: Homo sapiens.

The structures appear in SMILES notation. Where two headings read alike, the source gives them in different places.

Description for MIA PaCa-2 cells: (§1) Extracellular Lactate Production Inhibition after 4 h
(§2) Cells were plated in growth media supplemented with 10% FBS, followed by overnight recovery at 37° C., 5% CO2. […] Plates were then moved for 4 h incubation at 37° C., 5% CO2 with subsequent 20 μl media transfer to empty 384-well transparent plates. […] Plates were short-spun and measured kinetically in absorbance mode (530 nm, 12 min measurement time with 2-minute intervals between subsequent readouts at 30° C.). Differences in the signal between T8 min and T0min were normalized to vehicle (cells w/ 0.25% DMSO) and quasi-positive (LCIS buffer w/ 0.25% DMSO) controls and plotted against logarithmically-transformed test compound concentrations with fitting the 4-parameter model in GraphPad Prism software.
Description for SNU398 cells: as §1, §2

In the case of `COc1ccc(S(=O)(=O)Nc2ccccc2C#Cc2ccc(C(=O)N(C)C)nc2)c2ncccc12` [Compound 217], the IC50 was < 1 µM with MIA PaCa-2 cells; < 1 µM in the assay with SNU398 cells; 1 to 100 µM with MDA-MB-231 cells (MDA-MB-231); < 1 µM in the assay on MDA-MB-231 cells (MDA-MB-231, read-out: IC50 (MDA-MB231)).

In general, IC50 refers to the concentration that inhibits the measured activity by half.
